Experimental data reported in patent US11535598B2, “Histone deacetylases (HDACs) inhibitors” (ANNJI PHARMACEUTICAL CO., LTD., priority 2017, dated 2022).

How the values were obtained:
[1] = tested on: MOLM13; experiment: Cell proliferation assay MTT, MOLM13; settings: read-out: Cytotoxicity IC50 Leukemia MOLM13; MTT assay, 72 hr treated
Protocol: (§5) Cells were seeded in 96-well plates at a density of 5×10^3 cells per well and allowed to attach for 24 h before compound treatment. […] At end of the treatment period 72 h, 20 μl (5 mg/mL) 3-(4,5-dimethylthiazol-2-yl)-2,5-diphenyl-tetrazolium bromide (MTT) reagent was added each well. After 4 h incubation at 37° C., the supernatant was aspirated and the formazan crystals were dissolved in 100 μl of DMSO at 37° C. for 10 min with gentle agitation. The absorbance was measured at 570 nm using the Molecular Devices Microplate Reader. […] IC50 values were calculated from the relative viability values and concentrations by regression analysis.

[2] = tested on: PANC1; experiment: Cell proliferation assay MTT, PANC1; settings: read-out: Cytotoxicity IC50 Pancreas PANC1, 72 hr treated
Protocol: as §5

[3] = biological target: Human HDAC6 (Homo sapiens (Human), UniProt Q9UBN7); experiment: HDAC enzymatic assay, HDAC6; type: biochemical; settings: 10-dose IC50 mode with a 3-fold serial dilution; read-out: HDAC subtypes IC50 HDAC6
Chain of Human HDAC6 (Q9UBN7 whole entry): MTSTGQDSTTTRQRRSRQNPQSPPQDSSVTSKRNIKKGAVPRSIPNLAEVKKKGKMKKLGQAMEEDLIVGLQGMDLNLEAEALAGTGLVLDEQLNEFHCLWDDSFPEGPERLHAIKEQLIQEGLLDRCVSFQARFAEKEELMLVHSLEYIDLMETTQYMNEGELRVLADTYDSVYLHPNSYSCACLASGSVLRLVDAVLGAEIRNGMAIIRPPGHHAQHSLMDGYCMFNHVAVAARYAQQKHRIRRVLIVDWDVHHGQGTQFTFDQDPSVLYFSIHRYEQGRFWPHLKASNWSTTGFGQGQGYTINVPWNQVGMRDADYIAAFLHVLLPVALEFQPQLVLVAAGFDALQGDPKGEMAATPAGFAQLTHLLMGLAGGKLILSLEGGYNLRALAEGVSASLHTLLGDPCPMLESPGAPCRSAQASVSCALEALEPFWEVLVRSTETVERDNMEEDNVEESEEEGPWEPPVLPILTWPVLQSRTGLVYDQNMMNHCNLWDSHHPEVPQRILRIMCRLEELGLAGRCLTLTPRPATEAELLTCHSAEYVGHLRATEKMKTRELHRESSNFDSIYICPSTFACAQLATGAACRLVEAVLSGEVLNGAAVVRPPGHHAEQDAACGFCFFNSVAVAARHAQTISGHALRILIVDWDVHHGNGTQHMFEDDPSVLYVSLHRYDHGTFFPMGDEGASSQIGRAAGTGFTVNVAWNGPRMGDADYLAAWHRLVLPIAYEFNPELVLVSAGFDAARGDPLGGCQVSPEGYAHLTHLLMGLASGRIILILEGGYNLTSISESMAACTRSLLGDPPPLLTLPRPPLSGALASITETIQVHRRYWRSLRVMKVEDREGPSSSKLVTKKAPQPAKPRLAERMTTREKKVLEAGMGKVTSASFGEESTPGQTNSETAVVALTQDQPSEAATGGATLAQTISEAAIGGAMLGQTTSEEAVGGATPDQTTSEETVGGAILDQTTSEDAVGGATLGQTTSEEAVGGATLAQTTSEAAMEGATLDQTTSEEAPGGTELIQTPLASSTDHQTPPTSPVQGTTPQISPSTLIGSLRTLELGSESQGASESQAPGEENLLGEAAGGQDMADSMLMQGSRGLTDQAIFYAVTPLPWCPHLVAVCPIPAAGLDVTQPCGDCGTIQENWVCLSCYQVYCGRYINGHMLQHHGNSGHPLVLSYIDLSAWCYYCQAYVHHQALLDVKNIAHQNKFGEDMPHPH
Protocol: (§1) The IC50 values for aforementioned compounds against HDACs were determined. HDAC 1 to 11 can be assayed by using acetylated AMC-labeled peptide substrate.
(§2) Human HDAC1 GenBank Accession No. NM_004964): Full length with C-terminal GST tag, MW=79.9 kDa, Human HDAC2 (GenBank Accession No. Q92769): Full length with C-terminal His tag, MW=60 kDa. Human HDAC3/NcoR2 (GenBank Accession No. […] for HDAC3, GenBank Accession No. NM_006312 for NcoR2): Complex of human HDAC3, full length with C-terminal His tag, MW=49.7 kDa, and human NCOR2, N-terminal GST tag, MW=39 kDa. Human HDAC6 (GenBank Accession No. BC069243): Full length with N-terminal GST tag, MW=159 kDa. Human HDAC8 (GenBank Accession No. NM018486): Full length, MW=42 kDa, expressed in an E. coli expression system.
(§3) Human HDAC1, Human HDAC2, Human HDAC3/NcoR2, Human HDAC6, Human HDAC10, and Human HDAC11 were all expressed by baculovirus expression system in Sf9 cells.
(§4) 50 μM HDAC substrate. 1% DMSO final. Incubation for 2 hours at 30° C.

[4] = tested on: MV4-11; experiment: Cell proliferation assay MTT, MV4-11; settings: read-out: Cytotoxicity IC50 Leukemia MV4-11; MTT assay, 72 hr treated
Protocol: as §5

[5] = biological target: Human HDAC8 (Homo sapiens (Human), UniProt Q9BY41); experiment: HDAC enzymatic assay, HDAC8; type: biochemical; settings: 10-dose IC50 mode with a 3-fold serial dilution; read-out: HDAC subtypes IC50 HDAC8
Chain of Human HDAC8 (Q9BY41 whole entry): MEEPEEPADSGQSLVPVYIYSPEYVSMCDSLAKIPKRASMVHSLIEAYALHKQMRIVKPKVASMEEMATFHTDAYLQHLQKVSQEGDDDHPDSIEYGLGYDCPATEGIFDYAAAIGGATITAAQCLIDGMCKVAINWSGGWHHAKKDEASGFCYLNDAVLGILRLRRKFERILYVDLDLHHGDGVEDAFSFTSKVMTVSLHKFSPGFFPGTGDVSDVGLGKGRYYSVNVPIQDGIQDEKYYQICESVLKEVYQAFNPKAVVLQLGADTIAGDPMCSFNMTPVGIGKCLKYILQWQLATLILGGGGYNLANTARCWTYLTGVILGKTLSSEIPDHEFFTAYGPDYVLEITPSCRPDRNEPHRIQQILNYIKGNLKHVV
Protocol: as §1, §2, §4

[6] = biological target: Human HDAC1 (Homo sapiens (Human), UniProt Q13547); experiment: HDAC enzymatic assay, HDAC1; type: biochemical; settings: 10-dose IC50 mode with a 3-fold serial dilution; read-out: HDAC subtypes IC50 HDAC1
Chain of Human HDAC1 (Q13547 whole entry): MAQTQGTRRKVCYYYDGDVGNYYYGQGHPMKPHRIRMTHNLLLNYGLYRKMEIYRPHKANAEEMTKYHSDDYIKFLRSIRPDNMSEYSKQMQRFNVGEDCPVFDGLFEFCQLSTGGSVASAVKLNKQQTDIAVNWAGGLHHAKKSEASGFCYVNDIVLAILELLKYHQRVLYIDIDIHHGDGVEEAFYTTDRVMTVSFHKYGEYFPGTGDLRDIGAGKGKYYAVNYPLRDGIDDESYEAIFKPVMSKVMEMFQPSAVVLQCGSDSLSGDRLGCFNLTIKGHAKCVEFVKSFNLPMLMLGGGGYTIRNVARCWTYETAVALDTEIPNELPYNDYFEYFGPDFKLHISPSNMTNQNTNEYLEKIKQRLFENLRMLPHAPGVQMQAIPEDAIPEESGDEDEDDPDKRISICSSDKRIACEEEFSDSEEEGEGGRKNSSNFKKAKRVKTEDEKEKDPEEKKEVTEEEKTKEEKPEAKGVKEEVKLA
Protocol: as §1, §2, §3, §4

[7] = tested on: A549; experiment: Cell proliferation assay MTT, A549; settings: read-out: Cytotoxicity IC50 Lung A549, 72 hr treated
Protocol: as §5

[8] = in vitro; settings: human, FHs173We normal cells
Protocol: as §5

[9] = tested on: U87MG; experiment: Cell proliferation assay MTT, U87MG; settings: read-out: Cytotoxicity IC50 Glioblastoma U87MG, 72 hr treated
Protocol: as §5

[10] = in vitro; settings: monkey, Vero normal cells
Protocol: as §5

[11] = tested on: LNCap; experiment: Cell proliferation assay MTT, LNCaP; settings: read-out: Cytotoxicity IC50 Prostate LNCap, 72 hr treated
Protocol: as §5

[12] = tested on: HL60; experiment: Cell proliferation assay MTT, HL60; settings: read-out: Cytotoxicity IC50 Leukemia HL60, 72 hr treated
Protocol: as §5

[13] = tested on: HepG2; experiment: Cell proliferation assay MTT, HepG2; settings: read-out: Cytotoxicity IC50 Liver HepG2, 72 hr treated
Protocol: as §5

[14] = biological target: Human HDAC11 (Homo sapiens (Human), UniProt Q96DB2); experiment: HDAC enzymatic assay, HDAC11; type: biochemical; settings: 10-dose IC50 mode with a 3-fold serial dilution; read-out: HDAC subtypes IC50 HDAC11
Chain of Human HDAC11 (Q96DB2 whole entry): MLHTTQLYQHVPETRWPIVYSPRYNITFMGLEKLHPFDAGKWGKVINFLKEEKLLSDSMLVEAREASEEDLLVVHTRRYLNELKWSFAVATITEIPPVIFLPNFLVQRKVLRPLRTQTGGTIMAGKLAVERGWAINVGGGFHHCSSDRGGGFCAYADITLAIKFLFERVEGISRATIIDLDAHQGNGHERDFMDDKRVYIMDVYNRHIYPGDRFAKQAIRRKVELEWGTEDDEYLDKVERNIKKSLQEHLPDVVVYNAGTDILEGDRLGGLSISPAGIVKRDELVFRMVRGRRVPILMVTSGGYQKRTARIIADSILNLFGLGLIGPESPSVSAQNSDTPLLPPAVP
Protocol: as §1, §2, §3, §4

[15] = tested on: Vero; experiment: Cell proliferation assay MTT, Vero normal cells; settings: read-out: Cytotoxicity IC50 Monkey normal Vero, 72 hr treated
Protocol: as §5

[16] = tested on: FHsWe; experiment: Cell proliferation assay MTT, FHsWe normal cells; settings: read-out: Cytotoxicity IC50 Human normal FHsWe, 72 hr treated
Protocol: as §5

Compound | IC50 [1] [µM] | IC50 [2] [µM] | IC50 [3] [µM] | IC50 [4] [µM] | IC50 [5] [µM] | IC50 [6] [µM] | IC50 [7] [µM] | IC50 at 72 h [8] [µM] | IC50 [9] [µM] | IC50 at 72 h [10] [µM] | IC50 [11] [µM] | IC50 [12] [µM] | IC50 [13] [µM] | IC50 [14] [µM] | IC50 [15] [µM] | IC50 [16] [µM]
N#Cc1ccc2c(=O)n(CCc3ccccc3)c(=O)n(Cc3ccc(C(=O)NO)cc3)c2c1 [Compound 3, 4-((7-cyano-2,4-dioxo-3-phenethyl-3,4-dihydroquinazolin-1(2H)-yl)methyl)-N-hydroxybenzamide] | > 10 | > 10 | 13.5 | > 10 | 1.3 | 12 | > 10 | > 200 | > 10 | > 10 | > 10 | > 10 | > 10 | – | – | –
O=C(NO)c1ccc(Cn2c(=O)n(CCc3ccccc3)c(=O)c3ccccc32)cc1 [Compound 5, 4-((2,4-dioxo-3-phenethyl-3,4-dihydroquinazolin-1(2H)-yl)methyl)-N-hydroxybenzamide] | 0.16 ± 0.03 | 4.15 ± 0.27 | 0.004 | 0.17 ± 0.05 | 0.376 | 11.2 | 3.75 ± 0.39 | 83.21 ± 0.62 | 1.56 ± 0.14 | 91.38 ± 0.47 | 0.44 ± 0.07 | 0.25 ± 0.03 | 1.93 ± 0.25 | 13.9 | – | –
O=C(NO)c1ccc(Cn2c(=O)n(CCc3ccccc3)c(=O)c3cc(Cl)ccc32)cc1 [Compound 9, 4-((6-chloro-2,4-dioxo-3-phenethyl-3,4-dihydroquinazolin-1(2H)-yl)methyl)-N-hydroxybenzamide] | 2.82 ± 0.07 | 4.05 ± 0.12 | 0.035 | 2.78 ± 0.03 | – | 18.9 | 2.45 ± 0.51 | 70.34 ± 0.12 | 2.26 ± 0.13 | 77.51 ± 0.14 | 1.01 ± 0.11 | 2.71 ± 0.05 | 2.03 ± 0.47 | – | – | –
O=C(NO)c1ccc(Cn2c(=O)n(CCc3ccccc3)c(=O)c3ccc(C(F)(F)F)cc32)cc1 [Compound 13, 4-((2,4-dioxo-3-phenethyl-7-(trifluoromethyl)-3,4-dihydroquinazolin-1(2H)-yl)methyl)-N-hydroxybenzamide] | 0.92 ± 0.07 | 8.29 ± 0.43 | 0.635 | 0.83 ± 0.11 | 1.44 | 8.02 | 7.22 ± 0.29 | 131.7 ± 0.25 | 5.87 ± 0.14 | 146.2 ± 0.41 | 5.92 ± 0.21 | 0.87 ± 0.12 | 5.48 ± 0.27 | 7.39 | – | –
COc1ccccc1CCn1c(=O)c2ccccc2n(Cc2ccc(C(=O)NO)cc2)c1=O [Compound 15, N-hydroxy-4-((3-(2-methoxyphenethyl)-2,4-dioxo-3,4-dihydroquinazolin-1(2H)-yl)methyl)benzamide] | 1.47 ± 0.07 | > 10 | 0.011 | 1.65 ± 0.03 | 0.525 | – | 5.69 ± 0.21 | 55.44 ± 0.09 | 7.08 ± 0.8 | 96.92 ± 0.11 | 5.71 ± 0.32 | 1.22 ± 0.08 | 7.11 ± 0.28 | 34.4 | – | –
O=C(CCCCCCC(=O)Nc1ccccc1)NO [SAHA, reference compound] | – | – | – | – | – | – | – | – | – | – | – | 1.85 ± 0.08 | – | – | 26.6 | –
CN1CCc2c(c3ccccc3n2Cc2ccc(C(=O)NO)cc2)C1 [Tubastatin A, reference compound] | – | > 10 | – | – | – | – | > 10 | – | > 10 | – | > 10 | – | > 10 | – | 39.9 | 46.5
